# Experimental data: patent US6352958B1, “Cycloimido-substituted benzofused heterocyclic herbicides” (FMC Corporation, priority 1997, dated 2002)
# Experiments:
# [1] = system: soybean (Glycine max var. Winchester); test: Preemergence herbicidal activity, soybean; assay type: in vivo; settings: Glycine max, pre-emergence, Rate of Application 0.3 Kg/Ha, examined after 12-17 days, read-out: PREEMERGENCE HERBICIDAL ACTIVITY (% CONTROL) SOY
# [2] = system: wheat (Triticum aestivum var. Lew); test: Preemergence herbicidal activity, wheat; assay type: in vivo; settings: Triticum aestivum, pre-emergence, Rate of Application 0.3 Kg/Ha, examined after 12-17 days, read-out: PREEMERGENCE HERBICIDAL ACTIVITY (% CONTROL) WHT
# [3] = system: field corn (Zea mays var. Pioneer 3732); test: Preemergence herbicidal activity, corn; assay type: in vivo; settings: Zea mays, pre-emergence, Rate of Application 0.3 Kg/Ha, examined after 12-17 days, read-out: PREEMERGENCE HERBICIDAL ACTIVITY (% CONTROL) CRN
# [4] = system: velvetleaf (Abutilon theophrasti); test: Preemergence herbicidal activity, velvetleaf; assay type: in vivo; settings: Abutilon theophrasti, pre-emergence, Rate of Application 0.3 Kg/Ha, examined after 12-17 days, read-out: PREEMERGENCE HERBICIDAL ACTIVITY (% CONTROL) ABUTH
# [5] = system: morningglory (Ipomea lacunosa or Ipomea hederacea); test: Preemergence herbicidal activity, morningglory; assay type: in vivo; settings: Ipomoea, pre-emergence, Rate of Application 0.3 Kg/Ha, examined after 12-17 days, read-out: PREEMERGENCE HERBICIDAL ACTIVITY (% CONTROL) IPOSS
# [6] = system: common chickweed (Stellaria media); test: Preemergence herbicidal activity, chickweed; assay type: in vivo; settings: Stellaria media, pre-emergence, Rate of Application 0.3 Kg/Ha, examined after 12-17 days, read-out: PREEMERGENCE HERBICIDAL ACTIVITY (% CONTROL) STEME
# [7] = system: common cocklebur (Xanthium strumarium L.); test: Preemergence herbicidal activity, cocklebur; assay type: in vivo; settings: Xanthium strumarium, pre-emergence, Rate of Application 0.3 Kg/Ha, examined after 12-17 days, read-out: PREEMERGENCE HERBICIDAL ACTIVITY (% CONTROL) XANPE
# [8] = system: blackgrass (Aloepecurus myosuroides); test: Preemergence herbicidal activity, blackgrass; assay type: in vivo; settings: Alopecurus myosuroides, pre-emergence, Rate of Application 0.3 Kg/Ha, examined after 12-17 days, read-out: PREEMERGENCE HERBICIDAL ACTIVITY (% CONTROL) ALOMY
# [9] = system: green foxtail (Setaria viridis); test: Preemergence herbicidal activity, green foxtail; assay type: in vivo; settings: Setaria viridis, pre-emergence, Rate of Application 0.3 Kg/Ha, examined after 12-17 days, read-out: PREEMERGENCE HERBICIDAL ACTIVITY (% CONTROL) SETVI
# [10] = system: Johnsongrass (Sorghum halepense); test: Preemergence herbicidal activity, johnsongrass; assay type: in vivo; settings: Sorghum halepense, pre-emergence, Rate of Application 0.3 Kg/Ha, examined after 12-17 days, read-out: PREEMERGENCE HERBICIDAL ACTIVITY (% CONTROL) SORHA
# [11] = system: soybean (Glycine max var. Winchester); test: Postemergence herbicidal activity, soybean; assay type: in vivo; settings: Glycine max, post-emergence, rate of application 0.3 Kg/Ha, rated after 12-17 days, read-out: Postemergence herbicidal activity (% control) SOY
# [12] = system: wheat (Triticum aestivum var. Lew); test: Postemergence herbicidal activity, wheat; assay type: in vivo; settings: Triticum aestivum, post-emergence, rate of application 0.3 Kg/Ha, rated after 12-17 days, read-out: Postemergence herbicidal activity (% control) WHT
# [13] = system: field corn (Zea mays var. Pioneer 3732); test: Postemergence herbicidal activity, corn; assay type: in vivo; settings: Zea mays, post-emergence, rate of application 0.3 Kg/Ha, rated after 12-17 days, read-out: Postemergence herbicidal activity (% control) CRN
# [14] = system: velvetleaf (Abutilon theophrasti); test: Postemergence herbicidal activity, velvetleaf; assay type: in vivo; settings: Abutilon theophrasti, post-emergence, rate of application 0.3 Kg/Ha, rated after 12-17 days, read-out: Postemergence herbicidal activity (% control) ABUTH
# [15] = system: morningglory (Ipomea lacunosa or Ipomea hederacea); test: Postemergence herbicidal activity, morningglory; assay type: in vivo; settings: Ipomoea, post-emergence, rate of application 0.3 Kg/Ha, rated after 12-17 days, read-out: Postemergence herbicidal activity (% control) IPOSS
# [16] = system: common cocklebur (Xanthium strumarium L.); test: Postemergence herbicidal activity, cocklebur; assay type: in vivo; settings: Xanthium strumarium, post-emergence, rate of application 0.3 Kg/Ha, rated after 12-17 days, read-out: Postemergence herbicidal activity (% control) XANPE
# [17] = system: blackgrass (Aloepecurus myosuroides); test: Postemergence herbicidal activity, blackgrass; assay type: in vivo; settings: Alopecurus myosuroides, post-emergence, rate of application 0.3 Kg/Ha, rated after 12-17 days, read-out: Postemergence herbicidal activity (% control) ALOMY
# [18] = system: green foxtail (Setaria viridis); test: Postemergence herbicidal activity, green foxtail; assay type: in vivo; settings: Setaria viridis, post-emergence, rate of application 0.3 Kg/Ha, rated after 12-17 days, read-out: Postemergence herbicidal activity (% control) SETVI
# [19] = system: Johnsongrass (Sorghum halepense); test: Postemergence herbicidal activity, johnsongrass; assay type: in vivo; settings: Sorghum halepense, post-emergence, rate of application 0.3 Kg/Ha, rated after 12-17 days, read-out: Postemergence herbicidal activity (% control) SORHA
smiles,measurement,setting,value
"Cn1c(C(F)(F)F)cc(=O)n(-c2c(F)cc(Cl)c3[nH]c(C(C)(C)C)nc23)c1=O [Compound 369, 3-(2-T-BUTYL4-CHLORO-6-FLUOROBENZIMIDAZOL-7-YL)-1-METHYL-6-TRIFLUOROMETHYL-2,4(1H,3H)-PYRIMIDINEDIONE]",inhibition at 300 g/ha,[1],100%
same,inhibition at 300 g/ha,[2],100%
same,inhibition at 300 g/ha,[3],100%
same,inhibition at 300 g/ha,[4],100%
same,inhibition at 300 g/ha,[5],100%
same,inhibition at 300 g/ha,[6],100%
same,inhibition at 300 g/ha,[7],100%
same,inhibition at 300 g/ha,[8],100%
same,inhibition at 300 g/ha,[9],100%
same,inhibition at 300 g/ha,[10],100%
same,inhibition at 300 g/ha,[11],100%
same,inhibition at 300 g/ha,[12],80%
same,inhibition at 300 g/ha,[13],100%
same,inhibition at 300 g/ha,[14],100%
same,inhibition at 300 g/ha,[15],100%
same,inhibition at 300 g/ha,[16],100%
same,inhibition at 300 g/ha,[17],100%
same,inhibition at 300 g/ha,[18],100%
same,inhibition at 300 g/ha,[19],100%
same,melting point,,125 to 130 °C
